Measured values: ChEMBL document CHEMBL6074620, “Discovery of a triphenylamine-based ligand that targets mitochondrial DNA G-quadruplexes and activates the cGAS-STING immunomodulatory pathway” (Eur J Med Chem, 2024)
Activity calls are given as the source filed them.

How the values were obtained:
Quadruplex DNA [1] = experiment: Binding affinity to 3-terminal mt6363 DNA (unknown origin) assessed as dissociation constant by TAMRA-labeled G4 quenching assay; assay type: nucleic-acid assay
Quadruplex DNA [2] = experiment: Binding affinity to 5-terminal mt6363 DNA (unknown origin) assessed as dissociation constant by TAMRA-labeled G4 quenching assay; assay type: nucleic-acid assay
4T1 [3] = experiment: Cytotoxicity against mouse 4T1 cells assessed as reduction in cell viability incubated for 24 hrs by CCK-8 assay; assay type: functional, cell-based; conditions: 4T1, 24 h
[4] = Cytotoxicity against human MCF-10A assessed as cell growth inhibition incubated for 24 hrs by CCK-8 assay; assay type: toxicity, cell-based; conditions: MCF-10A cells
Quadruplex DNA [5] = experiment: Stabilization of fluorescently labelled G4-quadruplex mt6363 DNA (unknown origin) assessed as effect on thermal stability of DNA structure by measuring change in melting temperature at 1 uM by FRET melting assay; assay type: nucleic-acid assay
4T1 [6] = experiment: Induction of apoptosis in mouse 4T1 cells assessed as decrease in PARP level at 5 uM by Western blotting analysis; assay type: functional, cell-based
4T1 [7] = experiment: Induction of mitochondrial damage DNA in mouse 4T1 cells assessed as reduction in mtDNA by qPCR analysis; assay type: functional, cell-based
Mitochondrial membrane [8] = experiment: Disruption of mitochondrial membrane potential in mouse 4T1 cells assessed as increase green fluorescence at 0 to 5 uM by JC-1 staining based analysis; conditions: dose 0-5 µM
Mitochondrial membrane [9] = experiment: Disruption of mitochondrial membrane potential in mouse 4T1 cells assessed as decrease red fluorescence at 0 to 5 uM by JC-1 staining based analysis; conditions: dose 0-5 µM
4T1 [10] = experiment: Induction of mitochondrial damage in mouse 4T1 cells assessed as increase in Dloop2 level by qPCR analysis; assay type: functional, cell-based
4T1 [11] = experiment: Activation of cGAS-STING signaling pathway in mouse 4T1 cells assessed as […] in TBK1 phosphorylation up to 5 uM by Western blot analysis; assay type: cell-based; conditions: filed as activator
4T1 [12] = experiment: Activation of cGAS-STING signaling pathway in mouse 4T1 cells assessed as […] in IRF3 phosphorylation up to 5 uM by Western blot analysis; assay type: cell-based; conditions: filed as activator
4T1 [13] = experiment: Activation of cGAS-STING signaling pathway in mouse 4T1 cells assessed as increase in TNF-alpha level at 5 uM by qPCR analysis; assay type: cell-based; conditions: filed as activator
4T1 [14] = experiment: Induction of ROS generation in mouse 4T1 cells assessed as decrease ROS level at 5 uM in presence of NAC by […] analysis; assay type: functional, cell-based
4T1 [15] = experiment: Induction of mitochondrial damage in mouse 4T1 cells assessed as decrease in CytB level at 5 uM in presence of NAC by qPCR analysis; assay type: functional, cell-based
4T1 [16] = experiment: Antitumor activity against mouse 4T1 cells implanted with female BALB/c mouse assessed as decrease tumor weight at 2.5 mg/kg, sc administered for every 3 days for 2 weeks and measured on day 21; assay type: functional, organism-based; conditions: time 21.0 day
4T1 [17] = experiment: Induction of mitochondrial damage in mouse 4T1 cells assessed as decrease in CytB level at 5 uM in presence of DDC by qPCR analysis; assay type: functional, cell-based
Mus musculus [18] = experiment: Immunostimulatory activity in female BALB/c mouse implanted with mouse 4T1 cells assessed as upregulation of M1 macrophages level 2.5 mg/kg, sc by flow cytometry analysis; assay type: functional, organism-based
Mus musculus [19] = experiment: Immunostimulatory activity in female BALB/c mouse implanted with mouse 4T1 cells assessed as downregulation of M2 macrophages level 2.5 mg/kg, sc by flow cytometry analysis; assay type: functional, organism-based
Mus musculus [20] = experiment: Immunostimulatory activity in female BALB/c mouse implanted with mouse 4T1 cells assessed as tumor infiltrating lymphocytes by measuring increase in CD4+ and CD8+T cells at 2.5 mg/kg, sc by immunohistochemistry analysis; assay type: functional, organism-based
4T1 [21] = experiment: Antitumor activity against mouse 4T1 cells implanted with female BALB/c mouse assessed as suppression in lung metastasis at 2.5 mg/kg, iv administered every 3 days for 2 weeks from day 7; assay type: functional, organism-based
4T1 [22] = experiment: Induction of apoptosis in mouse 4T1 cells at 5 uM by Annexin V/PI staining based flow cytometry analysis; assay type: functional, cell-based
4T1 [23] = experiment: Activation of cGAS-STING signaling pathway in mouse 4T1 cells assessed as increase in IL-6 level up to 5 uM by ELISA analysis; assay type: cell-based; conditions: filed as activator
4T1 [24] = experiment: Activation of cGAS-STING signaling pathway in mouse 4T1 cells assessed as increase in TNF-alpha level up to 5 uM by ELISA analysis; assay type: cell-based; conditions: filed as activator
4T1 [25] = experiment: Induction of mouse 4T1 cell maturation assessed as increase in CD86 positive cells by flow cytometric analysis; assay type: functional, cell-based; conditions: dose <= 5.0 µM
Mus musculus [26] = experiment: In-vivo activation of cGAS-STING signaling pathway in female BALB/c mouse assessed as effect on cGAS level in tumor at 2.5 mg/kg, sc by Western blot analysis; assay type: functional, organism-based
Mus musculus [27] = experiment: In-vivo activation of cGAS-STING signaling pathway in female BALB/c mouse assessed as STING level in tumor at 2.5 mg/kg, sc by Western blot analysis; assay type: functional, organism-based
Mus musculus [28] = experiment: In-vivo activation of cGAS-STING signaling pathway in female BALB/c mouse assessed as TBK1 level in tumor at 2.5 mg/kg, sc by Western blot analysis; assay type: functional, organism-based
Mus musculus [29] = experiment: In-vivo activation of cGAS-STING signaling pathway in female BALB/c mouse assessed as IRF3 level in tumor at 2.5 mg/kg, sc by Western blot analysis; assay type: functional, organism-based
4T1 [30] = experiment: Antitumor activity against mouse 4T1 cells implanted with female BALB/c mouse assessed as effect on caspase-3 level in tumor at 2.5 mg/kg, sc measured for 21 days; assay type: functional, organism-based; conditions: time 21.0 day
4T1 [31] = experiment: Antitumor activity against mouse 4T1 cells implanted with female BALB/c mouse assessed as effect on PARP level in tumor at 2.5 mg/kg, sc measured for 21 days; assay type: functional, organism-based; conditions: time 21.0 day

COc1ccc(N(c2ccc(/C=C/C3=[N+](C)c4ccc5ccccc5c4C3(C)C)cc2)c2ccc(OC)cc2)cc1.[I-]
active: Activity (4T1 [6]) | Activity (4T1 [7]) | Activity (Mitochondrial membrane [8]) | Activity (Mitochondrial membrane [9]) | Activity (4T1 [10]) | Activity (4T1 [11]) | Activity (4T1 [12]) | Activity (4T1 [13]) | Activity (4T1 [14]) | Activity (4T1 [15]) | Activity (4T1 [16]) | Activity (4T1 [17]) | Activity (Mus musculus [18]) | Activity (Mus musculus [19]) | Activity (Mus musculus [20]) | Activity (4T1 [21]) | Activity (4T1 [22]) | Activity (4T1 [23]) | Activity (4T1 [24]) | Activity (4T1 [25]) Dose-dependent-effect | Activity (Mus musculus [26]) | Activity (Mus musculus [27]) | Activity (Mus musculus [28]) | Activity (Mus musculus [29]) | Activity (4T1 [30]) | Activity (4T1 [31])
2400 nM: Kd (Quadruplex DNA [2])
28.5 °C: ΔTm (Quadruplex DNA [5])
1900 nM: Kd (Quadruplex DNA [1]) | IC50 (4T1 [3])
9600 nM: IC50 at 24 h [4]
